Measurements as given in paper PMC6337169, “Catechol 1,2-Dioxygenase is an Analogue of Homogentisate 1,2-Dioxygenase in Pseudomonas chlororaphis Strain UFB2” (International Journal of Molecular Sciences, 2018).

System: T1, catechol 1,2-dioxygenase (C12O) from PcUFB2; identified by ES-MS as homogentisate 1,2-dioxygenase (H12D)
T1 construct: gene hmgA; native purification from UFB2 cells grown on phenol (ANX anion exchange, Sephacryl HR100); 35 kDa on SDS-PAGE
Assay: UV spectrophotometry, cis,cis-muconic acid at […] nm; Lineweaver-Burk / Michaelis-Menten fit
Assay type: biochemical, Pseudomonas chlororaphis
Details: 50 mM sodium phosphate pH 8, 30 °C, 30 min, 0-500 µM catechol

Structure (SMILES): Oc1ccccc1O [catechol]
- Km: 35.8 µM
